Measurements taken from US20040038968A1, “Thiazolidinedione derivative and its use as antidiabetic” (priority 2000, published 2004).

Legend:
[1] = Solid state stability (storage for 1 month, HPLC assay); type: physicochemical; details: glass bottle
Protocol: The solid state stability of the drug substance was determined by storing approximately 1.0 g of the material in a glass bottle at a) 40° C./75 % Relative Humidity (RH), open exposure, for 1 month and b) at 50° C., closed, for 1 month. The material was assayed by HPLC for final content and degradation products in both cases.

[2] = Solubility in water (visual, confirmed by HPLC assay of a saturated solution); type: physicochemical; details: thermodynamic from solid
Protocol: The solubility of the material was determined by adding water in aliquots from […] to approximately 100 mg of drug substance until the powder had dissolved. The visual solubility was confirmed by an HPLC assay of a saturated solution. Solubility: >100 mg/ml.

CN(CCOc1ccc(CC2SC(=O)NC2=O)cc1)c1ccccn1.[K] (centres unmarked) [Potassium Salt, 5-[4-[2-(N-Methyl-N-(2-pyridyl)amino)ethoxy]benzyl]thiazolidine-2,4-dione, potassium salt]
Degradation (HPLC, degradation products) ([1]; 40° C./75% RH, open exposure): No significant degradation observed
HPLC assay for final content ([1]; 40° C./75% RH, open exposure): 101 % initial
Degradation (HPLC, degradation products) ([1]; 50° C., closed): No significant degradation observed
HPLC assay for final content ([1]; 50° C., closed): 99 % initial
solubility [2]: > 100 mg/mL
